Assay results: patent US20080274892A1, “Novel Haloalkylsulfonanilide Derivative, Herbicide, and Method of Use Thereof” (priority 2005, published 2008)

Legend:
[1] = test system: bulrush; assay: Test Example 1: herbicidal efficacy on rice paddy weeds pre-emergence; format: in vivo, Scirpus juncoides; details: dosage 1000 g/ha, 21 days
[2] = test system: false pimpernel; assay: as above; format: in vivo, Lindernia pyxidaria; details: dosage 1000 g/ha, 21 days
[3] = test system: barnyard glass; assay: Test Example 2: herbicidal efficacy on rice paddy weeds post-emergence; format: in vivo, Echinochloa crus-galli; details: dosage 1000 g/ha; post-emergence, one leaf stage; 21 days after treatment
In short: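 Plastic pots of 75 cm^2 were filled with clay loam soil and sown with barnyard glass and bulrush seeds, then topped with 75 cm^3 soil containing false pimpernel seeds. The pots were flooded to 5 cm water depth and held in a hot house. Twenty-one days after treatment, herbicidal efficacy was graded against an untreated control.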

[4] = test system: bulrush; assay: as above; format: in vivo, Scirpus juncoides; details: dosage 1000 g/ha; post-emergence, one leaf stage; 21 days after treatment
[5] = test system: false pimpernel; assay: as above; format: in vivo, Lindernia pyxidaria; details: dosage 1000 g/ha; post-emergence, one leaf stage; 21 days after treatment
[6] = test system: paddy rice plant (cultivar: Nihonbare); assay: Test Example 3: phytotoxicity test for transplanted paddy rice plant; format: in vivo; details: dosage 1000 g/ha; transplanted rice, treated 5 days after transplantation; 21 days after treatment
In short: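 Clay loam soil was placed in a 75 cm^2 plastic pot and flooded to a water depth of 5 cm. Two Nihonbare paddy rice plants at the two-leaf stage were transplanted 1 cm deep and grown in a hot house. After treatment, pots stayed in the hot house for 21 days, and phytotoxicity was then graded against an untreated control.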

[7] = test system: bulrush; assay: Test Example 4: low dosage test for rice paddy weeds; format: in vivo, Scirpus juncoides; details: 300 g/ha as an active ingredient; plants treated at the one leaf stage; 21 days after treatment; vs untreated control
In short: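 Bulrush sown in clay loam pots, flooded to 5 cm water in a hot house, treated at the one-leaf stage with formulated compound at 300 g/ha. Efficacy scored 0–4 against untreated control 21 days after treatment (4 = 90–100%, 0 = 0% inhibition).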

[8] = test system: transplanted paddy rice plant and Bulrush; assay: Test Example 5: selectivity between transplanted paddy rice plant and weeds; format: in vivo; details: (highest dosage with no phytotoxicity to paddy rice)/(lowest dosage with effective level 4 on Bulrush); rice 3000-100 g/ha, Bulrush 300-10 g/ha; 21 days
In short: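 Transplanted paddy rice was treated at 3000, 1000, 300 and 100 g/ha active ingredient for phytotoxicity, and post-emergence bulrush at 300, 100, 30 and 10 g/ha. Plants were kept in a hothouse for 21 days. Growth inhibition versus untreated control was scored 0–4 (0%, 1–39%, 40–69%, 70–89%, 90–100%).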

Row | SMILES | Bulrush pre (herbicidal efficacy grade) [1] | False pimpernel pre (herbicidal efficacy grade) [2] | Burnyard grass post (herbicidal efficacy grade) [3] | Bulrush post (herbicidal efficacy grade) [4] | False pimpernel post (herbicidal efficacy grade) [5] | Phytotoxicity to paddy rice [6] | Herbicide effect to Bulrush [7] | Selective Index [8] | melting point [°C]
1 | CCC1COC(=O)N1Cc1ccccc1N(C(=O)OCC(C)C)S(=O)(=O)C(F)(F)F (stereo not drawn) [Compound No. 1-6, 4-ethyl-3-{2-[N-(isobutoxycarbonyl)-N-(trifluoromethanesulfonyl)amino]benzyl}-2-oxazolidinone] | 4 (90%-100% of herbicidal efficacy or phytotoxicity) | 4 (90%-100% of herbicidal efficacy or phytotoxicity) | 4 (90%-100% of herbicidal efficacy or phytotoxicity) | 4 (90%-100% of herbicidal efficacy or phytotoxicity) | 4 (90%-100% of herbicidal efficacy or phytotoxicity) | 1 (1%-39% of herbicidal efficacy or phytotoxicity) | 3 (70%-89% of herbicidal efficacy or phytotoxicity) | 3 | 69.3 to 71.7
2 | CC1(C)COC(=O)N1Cc1ccccc1NS(=O)(=O)C(F)(F)F [Compound No. 1-15, 4,4-dimethyl-3-[2-(trifluoromethanesulfonylamino)benzyl]-2-oxazolidinone] | 4 (90%-100% of herbicidal efficacy or phytotoxicity) | 4 (90%-100% of herbicidal efficacy or phytotoxicity) | 4 (90%-100% of herbicidal efficacy or phytotoxicity) | 4 (90%-100% of herbicidal efficacy or phytotoxicity) | 4 (90%-100% of herbicidal efficacy or phytotoxicity) | 1 (1%-39% of herbicidal efficacy or phytotoxicity) | 4 (90%-100% of herbicidal efficacy or phytotoxicity) | 10 | 134.9
3 | CC(C)COC(=O)N(c1ccccc1CN1C(=O)OCC1(C)C)S(=O)(=O)C(F)(F)F [Compound No. 1-16, 4,4-dimethyl-3-{2-[N-(isobutoxycarbonyl)-N-(trifluoromethanesulfonyl)amino]benzyl}-2-oxazolidinone] | 4 (90%-100% of herbicidal efficacy or phytotoxicity) | 4 (90%-100% of herbicidal efficacy or phytotoxicity) | 4 (90%-100% of herbicidal efficacy or phytotoxicity) | 4 (90%-100% of herbicidal efficacy or phytotoxicity) | 4 (90%-100% of herbicidal efficacy or phytotoxicity) | 0 (0% of herbicidal efficacy or phytotoxicity) | 4 (90%-100% of herbicidal efficacy or phytotoxicity) | 33 | 65 to 65.8
4 | CC1CN(Cc2ccccc2NS(=O)(=O)C(F)(F)F)C(=S)O1 (stereo not drawn) [Compound No. 1-21, 5-methyl-3-[2-(trifluoromethanesulfonylamino)benzyl]-2-oxazolidinethione] | 4 (90%-100% of herbicidal efficacy or phytotoxicity) | 4 (90%-100% of herbicidal efficacy or phytotoxicity) | 4 (90%-100% of herbicidal efficacy or phytotoxicity) | 4 (90%-100% of herbicidal efficacy or phytotoxicity) | 3 (70%-89% of herbicidal efficacy or phytotoxicity) | 0 (0% of herbicidal efficacy or phytotoxicity) | 4 (90%-100% of herbicidal efficacy or phytotoxicity) | 33 | 74 to 76
5 | CCC1CN(Cc2ccccc2N(C(=O)OCC(C)C)S(=O)(=O)C(F)(F)F)C(=O)O1 (stereo not drawn) [Compound No. 1-24, 5-ethyl-3-{2-[N-(isobutoxycarbonyl)-N-(trifluoromethanesulfonyl)amino]benzyl}-2-oxazolidinone] | 4 (90%-100% of herbicidal efficacy or phytotoxicity) | 4 (90%-100% of herbicidal efficacy or phytotoxicity) | 4 (90%-100% of herbicidal efficacy or phytotoxicity) | 4 (90%-100% of herbicidal efficacy or phytotoxicity) | 4 (90%-100% of herbicidal efficacy or phytotoxicity) | 0 (0% of herbicidal efficacy or phytotoxicity) | 4 (90%-100% of herbicidal efficacy or phytotoxicity) | 33 | 85 to 87
6 | CC1(C)CN(Cc2ccccc2NS(=O)(=O)C(F)(F)F)C(=O)S1 [Compound No. 1-184, 5,5-dimethyl-3-[2-(trifluoromethanesulfonylamino)benzyl]thiazolidin-2-one] | 4 (90%-100% of herbicidal efficacy or phytotoxicity) | 4 (90%-100% of herbicidal efficacy or phytotoxicity) | 4 (90%-100% of herbicidal efficacy or phytotoxicity) | 4 (90%-100% of herbicidal efficacy or phytotoxicity) | 4 (90%-100% of herbicidal efficacy or phytotoxicity) | 1 (1%-39% of herbicidal efficacy or phytotoxicity) | 4 (90%-100% of herbicidal efficacy or phytotoxicity) | 10 | 115 to 117.5
